From article PMC11641365, “Evaluation of In Vitro Biological Activity of Flavanone/Chromanone Derivatives: Molecular Analysis of Anticancer Mechanisms in Colorectal Cancer” (International Journal of Molecular Sciences, 2024)

Key:
LoVo [1] = assay: MTT cell viability assay; type: cell-based; conditions: Homo sapiens, 24 h incubation with compound, mean ± SD of three experiments, read-out: Cytotoxic effect, IC50
Procedure: (§1) The cytotoxic activity of the 3-benzylideneflavanones, 3-benzylidenechromanones derivatives (compounds 1, 2, 3, 4, 5) and 5′-(3-methoxyphenyl)-2-phenyl-4′,5′-dihydro-4H-spiro[chromano-3,3′-pirazol]-4-one (compound 3a) was evaluated using the MTT assay (4,5-dimethylthiazol-2-yl)-2,5-diphenyltetrazoliumbromide), a colorimetric method that quantifies cell viability.
(§2) Cell viability was determined using the metabolic microplate spectrophotometric assay with Methylthiazolyl diphenyltetrazolium bromide (MTT) (Sigma-Aldrich; St. Louis, MO, USA). The MTT method belongs to metabolic tests for determining cell viability and consists of measuring the absorbance of a violet solution of formazan, a product of the reduction of a water-soluble yellow MTT by oxidoreductive enzymes (mainly mitochondrial succinate dehydrogenase) of living cells. The amount of the reaction product (water-insoluble formazan crystals) is proportional to the number of living and metabolically active cells in the sample. In the case of damaged or dead cells, formazan is formed in smaller amounts, or it is not formed.
(§3) The appropriate number of cells for a given cell line (6–8 × 10^3 cells/mL) were seeded onto colorless, sterile 96-well microplates (Nunc, Roskilde, Denmark) in the number appropriate for a given cell line. After 24 h of culture, various concentrations of the studied compounds (10^−7–10^−5 M) freshly prepared in DMSO (final concentration DMS < 0.1%) and diluted with complete culture medium were added and incubated in a CO2 incubator for 24 h. After this time, the medium was removed; the cell monolayer was washed twice with sterile PBS solution; and fresh culture medium was added to the microplate wells. After 48 h of cell culture, the MTT test was performed. A volume of 50 μL of tetrazolium salt solution (final concentration 0.05 mg/mL) was added to each microplate well. The microplate was placed for 3–4 h (depending on the cell line) in a CO2 incubator. After incubation, 100 μL of DMSO was added to the wells of the microplate to dissolve the purple formazan crystals formed in the living cell environment. The absorbance of the formazan solution, after gentle mixing, was read at a wavelength of λ = 580 nm and a reference wavelength of λ = 720 nm (Biotek Power Wave HT, Biotek Instruments, Winooski, VT, USA). The percentage of living cells was calculated by comparing the absorbance value of the tested samples with the absorbance value of the control (cells not treated with compounds). The absorbance of the control was taken as 100%.

SW620 [2] = assay: MTT cell viability assay; type: cell-based; conditions: Homo sapiens, SW-620, 24 h incubation with compound, mean ± SD of three experiments, read-out: Cytotoxic effect, IC50
Procedure: as §1, §2, §3

SW620 [3] = assay: Mitochondrial membrane potential (ΔΨm), JC-1 probe; type: cell-based, human; conditions: compound at IC50, vs control
From the text: Changes in mitochondrial potential in cancer cells exposed to the tested derivatives were monitored using the fluorescent probe JC-1. In non-apoptotic cells, JC-1 aggregates emit red-orange fluorescence. During changes in mitochondrial membrane potential, such as those associated with the initiation of PCD stages (both hyperpolarization and depolarization of mitochondrial membranes), JC-1 is converted to monomers, emitting green fluorescence.
5,5,6,6-Tetrachloro-1,1,3,3-tetraethylbenzimidazolylcarbocyanine iodide (JC-1) is one of the most reliable fluorescent probes used to assess changes in mitochondrial membrane potential (ΔΨ). In living cells with intact mitochondrial membranes, the lipophilic, cationic dye JC-1 penetrates the negatively charged mitochondrial matrix as a monomer, where it forms fluorescent aggregates with red-orange fluorescence (λex = 514 nm, λem = 590). […] The fluorescence ratio of aggregates (λem = 590 nm) and monomers (λem = 529 nm)—590 nm/529 nm—reflects the level of damage to the mitochondrial membrane.
Cells were seeded in black 96-well fluorometric microplates at a density of 10 × 10^3 cells/mL. […] Following treatment, the medium was removed, and the cell monolayers were washed twice with HBSS (140 mM NaCl, 5 mM KCl, 0.8 mM MgCl2, 1.8 mM CaCl2, 1 mM Na2HPO4, 10 mM HEPES, and 1% glucose). Then, 50 μL of a JC-1 solution in HBSS was added to each well, and the cells were incubated for 30 min in the dark at 37 °C (final JC-1 concentration 5 μM). After removing the fluorescent dye and replacing it with fresh HBSS, fluorescence measurements were taken using a Perkin-Elmer LS-5B spectrofluorometer (Perkin-Elmer LS-5B spectrofluorometer, Waltham, MA, USA). The excitation and emission wavelengths for JC-1 monomers were 514 nm and 529 nm, respectively, while for aggregates, they were 514 nm and 590 nm. The results were expressed as a percentage change in the fluorescence ratio of JC-1 aggregates to JC-1 monomers compared to the control, which was set at 100%.

LoVo [4] = assay: Hydrogen peroxide level, H2DCFDA probe; type: cell-based, human; conditions: compound at IC50, 24 h; for Increase in H2O2 levels: vs control
Procedure: Cellular H2O2 levels were assessed using 2′,7′-dichlorodihydrofluorescein diacetate (H2DCFDA, Sigma-Aldrich, St. Louis, MO, USA), a well-established fluorogenic probe for intracellular hydrogen peroxide detection. H2DCFDA readily diffuses across the cell membrane and is subsequently hydrolyzed by intracellular esterases to non-fluorescent H2DCF. Oxidation of H2DCF by ROS generates highly fluorescent 2′,7′-dichlorofluorescein (DCF), which accumulates in the cytosol. […] The fluorescence intensity of DCF is directly proportional to the concentration of ROS within the cell.
Cells were seeded in black 96-well fluorometric microplates at a density of 10 × 10^3 cells/mL. […] Following compound incubation, the medium was removed, and the cell monolayers were washed twice with HBSS (140 mM NaCl, 5 mM KCl, 0.8 mM MgCl2, 1.8 mM CaCl2, 1 mM Na2HPO4, 10 mM HEPES, and 1% glucose). A volume of 50 µL of H2DCFDA solution in HBSS (final concentration 5 μM) was added to each well, and the cells were incubated for 30 min in the dark at 37 °C. After incubation with the H2DCFDA, fluorescence measurements were conducted using a Perkin-Elmer LS-5B spectrofluorometer (MA, USA) at the following excitation and fluorescence emission wavelengths: λex = 498 nm/λem = 522 nm. The fluorescence intensity of control cells was arbitrarily assigned a value of 100%. The results were expressed as percentages of control, calculated by comparing the fluorescence intensity ratio of the test samples to controls (100%). The fluorescence of samples was denoted as Δf in relation to the control.

Row | Structure (SMILES) | IC50 (LoVo [1]) | IC50 (SW620 [2]) | Increase in mitochondrial membrane potential (hyperpolarization) (SW620 [3]) | Increase in H2O2 levels (LoVo [4]) | Change in mitochondrial membrane potential ΔΨm (SW620 [3]) | Effect on H2O2 levels (LoVo [4])
1 | O=C1/C(=C/c2ccccc2)COc2ccccc21 [Compound 1] | 12.6 ± 1.5 µM | 8.1 ± 1.7 µM | approximately 40% | 10% | – | –
2 | COc1cccc(/C=C2/C(=O)c3ccccc3OC2c2ccccc2)c1 (stereo not drawn) [Compound 3] | 23.2 ± 1.4 µM | 12.4 ± 2.1 µM | ~60% | 10% | – | –
3 | O=C1/C(=C/c2ccccc2)C(c2ccccc2)Oc2ccccc21 (stereo not drawn) [Compound 5] | 19.4 ± 2.1 µM | 16.7 ± 3.1 µM | – | – | no statistically significant changes | did not affect H2O2 levels
